Results from patent publication US12590105B2, “KRas G12C inhibitors” (Eli Lilly and Company, priority 2020, dated 2026).

Key:
KRas G12C = KRas G12C (Homo sapiens, UniProt P01116, G12C); test: KRas G12C Probe Occupancy TR-FRET Assay; conditions: His-tagged KRas G12C; inhibitor incubated 5 or 60 minutes (which one applies is not stated); read-out: relative IC50, competition with KRas Probe for binding to and covalently modifying KRas G12C
Excerpt: The purpose of this assay is to measure the ability of an inhibitor to compete with a probe for binding to and covalently modifying KRas G12C at codon 12. The signal is generated by the time-resolved transfer of fluorescence between europium on an antibody bound to KRas G12C Europium-labeled Anti-Histidine Tag Antibody LanthaScreen (the Eu Anti-His antibody) and fluorescent Tracer 647 (Alexa Fluor™) bound to KRas G12C through streptavidin and a biotinylated inhibitor (the “KRas Probe”, see Preparation 59).
Inhibitors are tested in dose response format from 10 mM stocks in 100% DMSO. The Labycyte Echo® 555 is used to dilute and transfer 100 nL per well containing a 10 point, 2.8-fold serial dilution to an assay plate. Two copies of the assay plate are prepared to measure the potency after 5 and 60 minutes incubation of the inhibitor with KRas G12C. His-tagged KRas G12C (20 nM) is added to the plates in assay buffer (20 mM Tris-HCl, pH 7.5, 0.01% TX-100, and 1 mM DTT). After 5 or 60 minutes incubation, 1 μM KRas Probe is added and allowed to covalently modify free KRas G12C for 1 hour. […] After 30 minutes, the fluorescent signal is read on an Envision™ Plate Reader (excitation at 340 nm, tracer emission (em) at […], and antibody emission at 615 nm). […]

[1] = tested on: phosphorylation of p-ERK1/2 in H358 cells; test: H358 Cellular Phospho-ERK AlphaLISA; assay type: cell-based; conditions: NCI-H358; H358 human lung cancer cells, 2 hours incubation; read-out: relative IC50, inhibition of phosphorylation of p-ERK1/2
Excerpt: The purpose of this assay is to measure the ability of test compounds to inhibit the phosphorylation of p-ERK1/2, a downstream effector of KRas in human lung cancer cells H358 (ATCC CRL-5807). Briefly, the AlphaLISA® SureFire® Ultra™ p-ERK 1/2 (Thr202/Tyr204) assay is a sandwich immunoassay for quantitative detection of phospho-ERK 1/2 (phosphorylated on Thr202/Tyr204 in ERK1, or Thr185/Tyr187 in ERK2) in cellular lysates using Alpha Technology (Perkin Elmer Cat #ALSU-PERK-A50K).
H358 cells are plated at 40K cells per well in 100 μL media (RPMI 1640, GIBCO Cat #22400-071) containing 10% FBS (GIBCO Cat #: 10082-147) in a 96 well plate (Costar #3596) and are incubated overnight in humid trays at 37° C., 5% CO2. […] The assay plate is then read on an EnVision™ Plate Reader (Perkin Elmer) using a luminescence program. […]

[2] = molecular target: T1, constitutive RAS GTPase activity in H358 cells (Homo sapiens, UniProt P01116, G12C); test: H358 Cellular Active RAS GTPase ELISA; assay type: cell-based; conditions: H358 human lung cancer cells, serum free media, 2 hours incubation; read-out: relative IC50, inhibition of constitutive RAS GTPase activity
T1 construct: host or cells: H358 human lung cancer cells
Excerpt: The purpose of this assay is to measure the ability of test compounds to inhibit constitutive RAS GTPase activity in human lung cancer cells H358 (ATCC CRL-5807). The RAS GTPase ELISA kit (Active Motif Cat #52097) contains a 96-well plate pre-coated with glutathione in order to capture a kit-supplied GST-Raf-RBD protein. Activated RAS (GTP-bound) in cell extracts specifically bind to the Raf-RBD. Bound RAS is detected with a primary antibody that recognizes human KRas. A secondary antibody conjugated with HRP recognizes the primary antibody and a development solution provides a chemiluminescent readout.
H358 cells are plated at 80,000 cells/well in 90 μL serum free media (RPMI 1640, GIBCO) and incubated overnight at 37° C./5% CO2. The next morning, 10 μL of serially-diluted (3-fold) test compounds (500 μM top concentration) and 10 μL of controls (Maximum signal wells: 5% DMSO and Minimum signal wells: 500 μM 1-[4-[6-chloro-8-fluoro-7-(3-hydroxy-1-naphthyl)quinazolin-4-yl]piperazin-1-yl]prop-2-en-1-one, WO2015054572 as an inhibitor) are added to the cell plate and incubated for 2 hours at 37° C./5% CO2. Complete Lysis/Binding Buffer is prepared containing Protease Inhibitor cocktail and GST-Raf-RBD and stored on ice. […] The assay plate is then read on an EnVision™ Plate Reader (Perkin Elmer) using a luminescence program. […]

KRas G12C, sequence (P01116 1-188 isoform P01116-2 G12C): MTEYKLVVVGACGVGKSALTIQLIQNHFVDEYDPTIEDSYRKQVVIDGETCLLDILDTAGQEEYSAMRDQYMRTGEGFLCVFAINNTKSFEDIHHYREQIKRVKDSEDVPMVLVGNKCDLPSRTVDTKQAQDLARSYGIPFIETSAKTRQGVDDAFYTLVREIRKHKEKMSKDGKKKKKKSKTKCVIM
T1 sequence (P01116 1-188 isoform P01116-2 G12C): as above

IC50 (KRas G12C): 34 nM
IC50 [1]: 89 nM
IC50 [2]: 326 nM
Compound: C=CC(=O)N1CCN2C(=O)c3cc(Cl)c(-c4ccc(F)c5sccc45)c(Cl)c3OCC[C@H]2C1 (single isomer, unassigned) [Example 2]
